# Source: ChEMBL document CHEMBL1146606, “CoMFA and homology-based models of the glycine binding site of N-methyl-d-aspartate receptor” (J Med Chem, 2003)
# How the values were obtained:
# [1] = target: Glutamate [NMDA] receptor; assay: Compound was tested for inhibition of [3H]DCKA binding to N-methyl-D-aspartate glutamate receptor; assay type: protein-complex assay; set-up: unit not given here
# [2] = target: Glutamate [NMDA] receptor; assay: Inhibition of [3H]DCKA binding to N-methyl-D-aspartate glutamate receptor; assay type: protein-complex assay
Compound,Log 1/IC50 [1],IC50 [2]
Oc1nc2ccc(Cl)cc2nc1O,-0.25,1800 nM
Cc1cc2nc(O)c(O)nc2cc1C,-0.52,3300 nM
Oc1nc2ccccc2nc1O,-0.99,9800 nM
Cc1cc2nc(O)c(O)nc2cc1Cl,0.11,780 nM
O=[N+]([O-])c1c(O)nc2cccc(Cl)c2c1O,-1.78,61000 nM
Oc1nc2cc(Cl)cnc2c(O)c1-c1ccsc1,-0.63,4300 nM
Oc1nc2ncccc2c(O)c1-c1ccccc1,-2,> 100000 nM
Oc1nc2ncccc2c(O)c1-c1cccc(Oc2ccccc2)c1,-1.49,31000 nM
N#Cc1cc([N+](=O)[O-])c2nc(O)c(O)nc2c1,-0.45,2800 nM
O=Nc1c(O)nc2c(F)c(Cl)c(F)cc2c1O,0.04,910 nM
O=Nc1c(O)nc2c(F)c(F)c(F)c(F)c2c1O,-0.52,3300 nM
Oc1nc2cc(Cl)cnc2c(O)c1-c1ccccc1,-0.52,3300 nM
O=[N+]([O-])c1c(O)nc2ccc(Cl)cc2c1O,-2,> 100000 nM
COc1cc2nc(O)c(O)nc2c(OC(C)=O)c1OC,-1.72,53000 nM
Cc1cc(C)c2nc(O)c(O)nc2c1,-0.32,2100 nM
O=c1[nH]c2cc3c(c([N+](=O)[O-])c2[nH]c1=O)CCC3,-0.49,3100 nM
O=[N+]([O-])c1c(O)nc2c(Cl)cccc2c1O,-2,> 100000 nM
O=[N+]([O-])c1c(O)nc2ccccc2c1O,-1.53,34000 nM
COc1cccc(-c2c(O)nc3cc(Cl)cnc3c2O)c1,-0.46,2900 nM
O=[N+]([O-])c1c(O)nc2c(F)c(Cl)c(F)cc2c1O,-1.6,40000 nM
Cc1cc([N+](=O)[O-])c2nc(O)c(O)nc2c1,-0.97,9300 nM
Oc1nc2cccnc2c(O)c1-c1ccccc1,-2,> 100000 nM
Oc1nc2ncc(Cl)cc2c(O)c1-c1ccccc1,-2,> 100000 nM
COc1c(F)cc2nc(O)c(O)nc2c1[N+](=O)[O-],-0.28,1900 nM
Oc1nc2ccncc2c(O)c1-c1cccc(Oc2ccccc2)c1,-1.3,20000 nM
Oc1nc2cc(Cl)cnc2c(O)c1-c1cccc(Cl)c1,-0.48,3000 nM
Oc1nc2cnccc2c(O)c1-c1cccc(Oc2ccccc2)c1,-0.73,5400 nM

Compound,Log 1/IC50 [1],IC50 [2]
O=[N+]([O-])c1c(O)nc2c(F)c(F)c(F)c(F)c2c1O,-2,> 100000 nM
Oc1nc2cc(Cl)cnc2c(O)c1-c1ccc(Cl)cc1,-1.11,13000 nM
Oc1nc2cc(Cl)cnc2c(O)c1-c1cccs1,-0.99,9800 nM
Oc1nc2ncc(Cl)cc2c(O)c1-c1cccc(Oc2ccccc2)c1,-1.28,19000 nM
O=Nc1c(O)nc2cccc(Cl)c2c1O,-0.64,4400 nM
O=Nc1c(O)nc2ccccc2c1O,-0.15,1400 nM
O=[N+]([O-])c1c(OCCCc2ccccc2)c(F)cc2nc(O)c(O)nc12,-0.6,4000 nM
O=[N+]([O-])c1c(O)nc2cc(Cl)ccc2c1O,-0.18,1500 nM
COc1cc2nc(O)c(O)nc2c(O)c1OC,-1.23,17000 nM
COc1cc2nc(O)c(O)nc2cc1OC,-1.23,17000 nM
CCc1cc2nc(O)c(O)nc2cc1Cl,-0.15,1400 nM
Cc1cccc(-c2c(O)nc3cc(Cl)cnc3c2O)c1,-0.25,1800 nM
O=[N+]([O-])c1cccc(-c2c(O)nc3cc(Cl)cnc3c2O)c1,-0.87,7400 nM
CCCCOc1c(F)cc2nc(O)c(O)nc2c1[N+](=O)[O-],-0.63,4300 nM
O=Nc1c(O)nc2ccc(Cl)cc2c1O,-0.53,3400 nM
Oc1nc2cc(Cl)cnc2c(O)c1-c1ccccc1Cl,-1.38,24000 nM
Nc1c(F)cc2nc(O)c(O)nc2c1[N+](=O)[O-],-1.04,11000 nM
Oc1nc2cc3ccccc3cc2nc1O,-1.2,16000 nM
Oc1nc2cc3c(cc2nc1O)OCO3,-2,> 100000 nM
Oc1cc2nc(O)c(O)nc2cc1O,-2,> 100000 nM
O=Nc1c(O)nc2c(Cl)cccc2c1O,-2,> 100000 nM
CCOc1c(F)cc2nc(O)c(O)nc2c1[N+](=O)[O-],-0.56,3600 nM
O=[N+]([O-])c1c(O)nc2c(Cl)c(Cl)c(Cl)cc2c1O,-2,> 100000 nM
Oc1nc2cc3c(cc2nc1O)CCC3,-1.17,15000 nM
CCc1cc2nc(O)c(O)nc2cc1CC,-0.26,1800 nM
COc1cc2nc(O)c(O)nc2cc1Br,0,1000 nM

# Now those with a lower IC50 [2], led by results:
Log 1/IC50 [1],IC50 [2],Compound
0.55,280 nM,Oc1nc2cc(Cl)cc(Cl)c2nc1O
1.14,73 nM,Cc1c(C#N)cc2nc(O)c(O)nc2c1[N+](=O)[O-]
2.15,7 nM,O=Nc1c(O)nc2cc(Cl)c(Cl)c(Cl)c2c1O
0.14,730 nM,Oc1nc2c(F)c(F)c(F)c(F)c2nc1O
1.02,95 nM,Cc1c(F)cc2nc(O)c(O)nc2c1[N+](=O)[O-]
1.09,82 nM,CCc1cc2nc(O)c(O)nc2c([N+](=O)[O-])c1Br
0.66,220 nM,O=[N+]([O-])c1c(O)nc2cc(Cl)cc(Cl)c2c1O
1.28,53 nM,O=Nc1c(O)nc2cc(Cl)ccc2c1O
0.82,150 nM,Cc1c(Cl)cc2nc(O)c(O)nc2c1N
2.33,4.7 nM,Cc1c(Cl)cc2nc(O)c(O)nc2c1[N+](=O)[O-]
1.92,12 nM,O=Nc1c(O)nc2cc(Cl)c(Cl)cc2c1O
1.54,29 nM,CCc1cc2nc(O)c(O)nc2c([N+](=O)[O-])c1Cl
0.77,170 nM,O=Nc1c(O)nc2ccc(Cl)c(Cl)c2c1O
0.89,130 nM,CCc1c(Cl)cc2nc(O)c(O)nc2c1[N+](=O)[O-]
1.64,23 nM,Oc1nc2cc(Cl)cnc2c(O)c1Oc1cccc(-c2ccccc2)c1
0.96,110 nM,Oc1nc2cc(Cl)cnc2c(O)c1-c1cccc(Oc2ccccc2)c1

Log 1/IC50 [1],IC50 [2],Compound
0.8,160 nM,CCc1cc2nc(O)c(O)nc2c([N+](=O)[O-])c1CC
0.54,290 nM,Cc1cc(C)c2c(O)c([N+](=O)[O-])c(O)nc2c1
0.4,400 nM,O=[N+]([O-])c1c(O)nc2cc(Cl)c(Cl)cc2c1O
0.19,640 nM,CCSc1c(Cl)cc2nc(O)c(O)nc2c1[N+](=O)[O-]
1.54,29 nM,Cc1cc2nc(O)c(O)nc2c([N+](=O)[O-])c1C
1.35,45 nM,Cc1cc2nc(O)c(O)nc2c([N+](=O)[O-])c1Cl
1.43,37 nM,Cc1cc(C)c2c(O)c(N=O)c(O)nc2c1
0.66,220 nM,O=[N+]([O-])c1c(O)nc2cc(Cl)c(Cl)c(Cl)c2c1O
1.19,64 nM,COc1c(Br)cc2nc(O)c(O)nc2c1[N+](=O)[O-]
0.2,630 nM,Oc1nc2cc(F)c(Cl)c(F)c2nc1O
2.06,8.7 nM,Cc1c(Br)cc2nc(O)c(O)nc2c1[N+](=O)[O-]
0.82,150 nM,COc1c(Cl)cc2nc(O)c(O)nc2c1[N+](=O)[O-]
1.48,33 nM,O=Nc1c(O)nc2cc(Cl)cc(Cl)c2c1O
1.53,30 nM,Oc1nc2cc(Cl)c(Cl)c(Cl)c2nc1O
0.89,130 nM,"Oc1nc2cc(Cl)c(Cl)cc2nc1O [2,3-DIHYDROXY-6,7-DICHLOROQUINOXALINE]"
2.23,5.9 nM,O=c1[nH]c2cc(Cl)c(Cl)c([N+](=O)[O-])c2[nH]c1=O [LICOSTINEL]
